Reference: paper PMC5539068, “Structural optimization and evaluation of novel 2-pyrrolidone-fused (2-oxoindolin-3-ylidene)methylpyrrole derivatives as potential VEGFR-2/PDGFRβ inhibitors” (Chemistry Central Journal, 2017)
Entries after “also recorded” stand apart in the source; their conditions may differ. Where two headings read alike, the source gives them in different places.

Tests used:
[1] = system: 786-O cells; assay: Cell proliferation assay (MTT), 786-O; conditions: for IC50: Homo sapiens, 786-0, 72 h, read-out: IC50 786-O; for selective index (SI) 786-O: versus Detroit 551
Method: (§2) Serial dilutions of indicated compounds were added and incubated for additional 72 h. At the end of the incubation, cell viability was determined by the 3-(4,5-dimethylthiazol-2-yl)-2,5-diphenyl tetrazolium bromide (MTT) assay. The MTT formazan crystals formed were dissolved in DMSO, and the absorbance at 570 nm was recorded using a microplate spectrophotometer (Thermo Fisher Scientific, Waltham, MA, USA) [46].

[2] = system: Detroit 551 cells; assay: Cell proliferation assay (MTT), normal fibroblast Detroit 551; conditions: Homo sapiens, Detroit 551, 72 h, read-out: IC50 Detroit 551
Method: as §2

[3] = system: NCI-H460 cells; assay: Cell proliferation assay (MTT), NCI-H460; conditions: for IC50: Homo sapiens, NCI-H460, 72 h, read-out: IC50 NCI-H460; for selective index (SI) NCI-H460: versus Detroit 551
Method: as §2

[4] = system: HCT116 cells; assay: Cell proliferation assay (MTT), HCT116; conditions: for IC50: Homo sapiens, HCT-116, 72 h, read-out: IC50 HCT116; for selective index (SI) HCT116: versus Detroit 551
Method: as §2

[5] = target: VEGFR-2 (Homo sapiens, UniProt P35968); assay: In-vitro kinase assay (HotSpot, 33P), VEGFR-2; conditions: for inhibition at 0.08 µM: read-out: % inhibition of VEGFR-2 at 80 nM; for % inhibition of VEGFR-2 at 80 nM: 80 nM compound, ATP 10.0 μM
Method: Next, the VEGFR-2 phosphorylation inhibitory activities of the newly synthesized compounds were evaluated.
(§3) Briefly, specific kinase and substrate and required cofactors were prepared in reaction buffer. Test compounds were added to the reaction and after 20 min a mixture of ATP (Sigma, St. Louis MO, USA) and ^33P ATP (Perkin Elmer, Waltham MA, USA) was added to make a final concentration of 10.0 μM. Reactions were stood at room temperature for 120 min, and then the reactions were spotted onto a P81 ion exchange filter paper (Whatman Inc., Piscataway, NJ, USA). Unbound phosphate was removed by extensive washing of filters in 0.1% phosphoric acid. Kinase activity data was reported as the percent remaining kinase activity in test compounds compared to the solvent control dimethyl sulfoxide (DMSO).

[6] = system: HCT116 cells; assay: Cell cycle analysis by image cytometry (DAPI); conditions: 24 h, preliminary
Method: Cell cycle profiles of HCT116 cells were determined with an NC-3000 image cytometer (ChemoMetec, Allerod, Denmark) in accordance with manufacturer’s protocol. Briefly, cells were seeded at 200,000 cells/well on a 6-well plate for 24 h. […] After incubation for 24 h, 100,000 cells were harvested and centrifuged at 400 g at room temperature for 5 min, washed once with PBS (50 μM), and resuspended in lysis buffer (50 μl) (ChemoMetec, Allerod, Denmark) containing 10 μg/ml of 2-(4-amidinophenyl)-1H-indole-6-carboxamidine (DAPI, ChemoMetec, Allerod, Denmark). […] The cellular fluorescence was measured with an NC-3000 image cytometer using NC-SlideA8 (ChemoMetec, Allerod, Denmark). The NC-3000 software (ChemoMetec, Allerod, Denmark) was used for image acquisition, image analysis and quantification, and data visualization.

[7] = system: HUVEC cells; assay: In-vitro VEGF-induced Matrigel tube formation assay; format: cell-based, human; conditions: for IC50: Homo sapiens, HUVEC, VEGF 10 ng/ml, Matrigel, 6 h, read-out: IC50 Area (in vitro tube formation); for potency in inhibiting in vitro tube formation relative to sunitinib in terms of IC50: versus sunitinib
Method: The in vitro tube formation assay was assessed using ibidi μ-Slides (15-well, ibidi GmbH, Martinsried, Germany) in accordance with manufacturer’s protocol. Briefly, growth factor reduced Matrigel (10 μl) (Sigma, St. Louis MO) was added to the inner well of ibidi μ-Slides, and incubated at 37 °C for 1 h. […] 10,000 HUVEC cells in 50 μl of above growth medium was added to Matrigel (Sigma, St. Louis MO, USA) coated ibidi μ-Slides. After 6 h of incubation at 37 °C, the supernatant was discarded, and 50 μl of serum-free medium with diluted calcein AM (6.25 μg/ml) was added to above ibidi μ-Slides. After incubation in the dark at room temperature for 30 min, the μ-Slides were washed with PBS (50 μl) and fluorescence pictures were taken at 485 nm with a Leica DM1000 LED microscope (Leica Microsystems, Wetzlar, Hessen, Germany).

[8] = target: T1, Aurora A (Homo sapiens, UniProt O14965); assay: In-vitro kinase assay (HotSpot, 33P), Aurora A; conditions: ATP 10.0 μM; for % inhibition of Aurora A at 1.0 μM: 1.0 μM compound; for inhibition at 1 µM: read-out: % inhibition of Aurora A at 1.0 μM, 1.0 μM compound
T1 sequence (O14965 1-403): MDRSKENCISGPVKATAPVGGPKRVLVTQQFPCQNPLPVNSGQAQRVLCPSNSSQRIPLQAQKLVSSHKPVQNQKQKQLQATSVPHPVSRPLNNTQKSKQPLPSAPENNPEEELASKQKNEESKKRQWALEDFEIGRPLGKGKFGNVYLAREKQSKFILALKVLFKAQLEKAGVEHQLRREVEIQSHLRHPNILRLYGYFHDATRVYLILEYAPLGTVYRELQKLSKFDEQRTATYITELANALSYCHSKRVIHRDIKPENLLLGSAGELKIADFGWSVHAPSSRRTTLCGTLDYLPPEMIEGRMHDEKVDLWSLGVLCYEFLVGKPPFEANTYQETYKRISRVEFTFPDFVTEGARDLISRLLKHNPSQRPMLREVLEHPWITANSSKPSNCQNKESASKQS
Method: as §3

[9] = system: Detroit 551 cells
Method: (§1) Cells were seeded at 5000 cells/well on a 96-well plate for 24 h. The indicated compounds in different concentrations (100 μl) were added to cells. After 6 h, old medium was aspirated, and the cells were washed three times with PBS. WST-8 (Dojindo, Rockville, MD, USA) (10 µl) was added to each well, and the absorbance of the plate was recorded at 450 nm on a microplate spectrophotometer (Thermo Fisher Scientific, Waltham, MA, USA).

[10] = system: HCT116 cells
Method: as §1

[11] = target: PDGFRβ (Homo sapiens, UniProt P09619); assay: In-vitro kinase assay (HotSpot, 33P), PDGFRβ
Sequence of PDGFRβ (P09619 33-1106): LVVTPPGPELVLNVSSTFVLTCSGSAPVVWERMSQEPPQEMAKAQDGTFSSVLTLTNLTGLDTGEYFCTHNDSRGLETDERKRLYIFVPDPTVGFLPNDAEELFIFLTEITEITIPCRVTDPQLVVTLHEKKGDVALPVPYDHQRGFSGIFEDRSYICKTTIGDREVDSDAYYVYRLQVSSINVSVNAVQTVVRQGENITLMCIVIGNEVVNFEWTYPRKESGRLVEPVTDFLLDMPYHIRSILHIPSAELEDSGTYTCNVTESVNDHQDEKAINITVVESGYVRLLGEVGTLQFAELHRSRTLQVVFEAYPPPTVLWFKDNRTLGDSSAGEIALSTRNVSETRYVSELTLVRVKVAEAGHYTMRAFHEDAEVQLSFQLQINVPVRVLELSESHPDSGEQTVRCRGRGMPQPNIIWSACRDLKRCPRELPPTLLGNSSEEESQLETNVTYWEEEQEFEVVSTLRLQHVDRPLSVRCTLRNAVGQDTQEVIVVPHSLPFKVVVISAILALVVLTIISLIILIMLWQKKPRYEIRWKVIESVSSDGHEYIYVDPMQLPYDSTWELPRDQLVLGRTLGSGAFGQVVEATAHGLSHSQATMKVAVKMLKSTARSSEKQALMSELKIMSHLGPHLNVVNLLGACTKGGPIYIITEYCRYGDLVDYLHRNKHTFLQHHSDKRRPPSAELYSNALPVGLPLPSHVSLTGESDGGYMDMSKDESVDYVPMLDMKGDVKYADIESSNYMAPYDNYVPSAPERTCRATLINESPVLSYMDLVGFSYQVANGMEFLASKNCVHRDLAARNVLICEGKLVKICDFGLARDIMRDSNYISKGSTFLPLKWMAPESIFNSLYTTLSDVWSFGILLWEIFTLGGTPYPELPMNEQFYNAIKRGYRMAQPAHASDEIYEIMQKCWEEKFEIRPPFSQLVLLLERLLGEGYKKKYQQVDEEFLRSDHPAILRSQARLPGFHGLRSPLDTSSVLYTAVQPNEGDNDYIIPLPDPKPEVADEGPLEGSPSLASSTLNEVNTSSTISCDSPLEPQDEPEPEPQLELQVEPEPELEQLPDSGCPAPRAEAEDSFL

Sequence of VEGFR-2 (P35968 20-1356): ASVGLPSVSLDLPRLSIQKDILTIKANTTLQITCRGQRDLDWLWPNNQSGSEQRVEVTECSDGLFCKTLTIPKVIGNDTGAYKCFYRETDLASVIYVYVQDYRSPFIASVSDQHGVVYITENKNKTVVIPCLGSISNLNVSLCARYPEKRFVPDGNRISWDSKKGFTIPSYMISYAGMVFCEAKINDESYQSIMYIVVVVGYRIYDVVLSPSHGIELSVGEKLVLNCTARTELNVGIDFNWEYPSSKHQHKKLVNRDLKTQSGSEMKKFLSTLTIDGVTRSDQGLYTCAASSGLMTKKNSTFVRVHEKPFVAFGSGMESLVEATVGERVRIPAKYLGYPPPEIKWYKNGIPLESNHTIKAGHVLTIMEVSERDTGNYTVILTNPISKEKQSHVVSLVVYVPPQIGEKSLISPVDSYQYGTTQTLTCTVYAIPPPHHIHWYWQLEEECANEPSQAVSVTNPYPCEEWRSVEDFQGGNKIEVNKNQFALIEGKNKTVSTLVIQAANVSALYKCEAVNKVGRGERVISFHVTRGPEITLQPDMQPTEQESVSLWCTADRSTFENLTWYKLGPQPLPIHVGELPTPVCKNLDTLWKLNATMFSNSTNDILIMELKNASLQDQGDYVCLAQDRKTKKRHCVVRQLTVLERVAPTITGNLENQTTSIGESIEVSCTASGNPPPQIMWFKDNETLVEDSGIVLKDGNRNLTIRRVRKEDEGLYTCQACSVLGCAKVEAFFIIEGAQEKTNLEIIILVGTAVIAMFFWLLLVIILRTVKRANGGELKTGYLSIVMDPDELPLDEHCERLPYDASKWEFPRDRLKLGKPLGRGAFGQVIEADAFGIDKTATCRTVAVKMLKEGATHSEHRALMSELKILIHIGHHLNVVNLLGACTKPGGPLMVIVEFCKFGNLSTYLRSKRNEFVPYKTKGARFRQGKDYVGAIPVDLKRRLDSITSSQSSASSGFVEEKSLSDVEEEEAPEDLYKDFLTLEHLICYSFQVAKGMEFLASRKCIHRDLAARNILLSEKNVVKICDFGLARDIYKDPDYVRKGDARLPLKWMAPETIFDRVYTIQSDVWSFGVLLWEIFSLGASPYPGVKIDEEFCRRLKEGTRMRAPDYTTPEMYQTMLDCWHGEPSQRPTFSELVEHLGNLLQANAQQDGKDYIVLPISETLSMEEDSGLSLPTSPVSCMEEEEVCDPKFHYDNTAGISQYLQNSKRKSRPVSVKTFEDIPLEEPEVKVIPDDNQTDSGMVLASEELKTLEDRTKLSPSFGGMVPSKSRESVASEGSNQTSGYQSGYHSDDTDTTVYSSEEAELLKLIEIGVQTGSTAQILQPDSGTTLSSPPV

Row | IC50 [1] | IC50 [3] | melting point | IC50 [4] | inhibition at 0.08 µM [5] | Structure (SMILES) | IC50 [2] | selective index (SI) HCT116 [4] | % inhibition of VEGFR-2 at 80 nM [5] | selective index (SI) NCI-H460 [3] | further results
1 | > 10 µM | > 10 µM | 244 to 247 °C | 8.98 ± 0.92 µM | 20% | CCN(CC)CCN1Cc2[nH]c(/C=C3\C(=O)Nc4ccc(S(=O)(=O)N(C)C)cc43)c(C)c2C1=O [Compound 5, (Z)-3-((5-(2-(diethylamino)ethyl)-3-methyl-4-oxo-1,4,5,6-tetrahydropyrrolo[3,4-b]pyrrol-2-yl)methylene)-N,N-dimethyl-2-oxoindoline-5-sulfonamide] | > 10 µM | >1.11 | – | – | –
2 | > 10 µM | > 10 µM | 225 to 228 °C | > 10 µM | 15% | CCN(CC)CCN1Cc2[nH]c(/C=C3\C(=O)Nc4ccc(S(=O)(=O)Nc5ccccc5)cc43)c(C)c2C1=O [Compound 8, (Z)-3-((5-(2-(Diethylamino)ethyl)-3-methyl-4-oxo-1,4,5,6-tetrahydropyrrolo[3,4-b]pyrrol-2-yl)methylene)-2-oxo-N-phenylindoline-5-sulfonamide] | > 10 µM | – | did not differ from that of the 1% DMSO (control) | – | –
3 | > 10 µM | > 10 µM | 245 to 247 °C | 4.2 ± 0.57 µM | 0% | CCN(CC)CCN1Cc2[nH]c(/C=C3\C(=O)Nc4ccc(S(=O)(=O)N(CC)CC)cc43)c(C)c2C1=O [Compound 6, (Z)-3-((5-(2-(diethylamino)ethyl)-3-methyl-4-oxo-1,4,5,6-tetrahydropyrrolo[3,4-b]pyrrol-2-yl)methylene)-N,N-diethyl-2-oxoindoline-5-sulfonamide] | > 10 µM | >2.38 | – | – | –
4 | 8.49 ± 0.46 µM | 7.22 ± 1.01 µM | 212 to 215 °C | > 10 µM | 0% | CCN(CC)CCN1Cc2[nH]c(/C=C3\C(=O)Nc4ccc(C(F)(F)F)cc43)c(C)c2C1=O [Compound 11, (Z)-3-((5-(2-(Diethylamino)ethyl)-3-methyl-4-oxo-1,4,5,6-tetrahydropyrrolo[3,4-b]pyrrol-2-yl)methylene)-5-(trifluoromethyl)indolin-2-one] | > 10 µM | – | did not differ from that of the 1% DMSO (control); also recorded: no inhibitory activity | >1.39 | selective index (SI) 786-O [1]: >1.18
5 | > 10 µM | 6.61 ± 0.8 µM | 229 to 230 °C | > 10 µM | 13% | CCN(CC)CCN1Cc2[nH]c(/C=C3\C(=O)Nc4ccc([N+](=O)[O-])cc43)c(C)c2C1=O [Compound 12, (Z)-3-((5-(2-(diethylamino)ethyl)-3-methyl-4-oxo-1,4,5,6-tetrahydropyrrolo[3,4-b]pyrrol-2-yl)methylene)-5-nitroindolin-2-one] | > 10 µM | – | – | >1.51 | –
6 | > 10 µM | > 10 µM | 231 to 234 °C | > 10 µM | 0% | CCN(CC)CCN1Cc2[nH]c(/C=C3\C(=O)Nc4ccc(S(=O)(=O)Nc5ccc(C(F)(F)F)cc5)cc43)c(C)c2C1=O [Compound 9, (Z)-3-((5-(2-(Diethylamino)ethyl)-3-methyl-4-oxo-1,4,5,6-tetrahydropyrrolo[3,4-b]pyrrol-2-yl)methylene)-2-oxo-N-(4-(trifluoromethyl)phenyl)indoline-5-sulfonamide] | > 10 µM | – | did not differ from that of the 1% DMSO (control) | – | –
7 | 7.89 ± 0.6 µM | 7.51 ± 0.78 µM | – | 4.6 ± 0.23 µM | – | CCN(CC)CCNC(=O)c1c(C)[nH]c(/C=C2\C(=O)Nc3ccc(F)cc32)c1C [Sunitinib, sunitinib, reference compound] | 9.48 ± 0.18 µM | – | – | – | cell cycle profile effect ([6]; 5.0 μM): G0/G1 cell cycle arrest; IC50 [7]: 1.54 ± 0.08 µM; inhibition at 1 µM [8]: 50.7%; acute cytotoxicity, Detroit 551 [9]: neither our compounds nor sunitinib had acute cytotoxicity; acute cytotoxicity, HCT116 [10]: neither our compounds nor sunitinib had acute cytotoxicity
8 | > 10 µM | > 10 µM | 245 to 247 °C | > 10 µM | 4% | CCN(CC)CCN1Cc2[nH]c(/C=C3\C(=O)Nc4ccc(NS(C)(=O)=O)cc43)c(C)c2C1=O [Compound 10, (Z)-N-(3-((5-(2-(Diethylamino)ethyl)-3-methyl-4-oxo-1,4,5,6-tetrahydropyrrolo[3,4-b]pyrrol-2-yl)methylene)-2-oxoindolin-5-yl)methanesulfonamide] | > 10 µM | – | – | – | –
9 | > 10 µM | > 10 µM | 252 to 255 °C | > 10 µM | 0% | CCN(CC)CCN1Cc2[nH]c(/C=C3\C(=O)Nc4ccc(S(N)(=O)=O)cc43)c(C)c2C1=O [Compound 4, (Z)-3-((5-(2-(diethylamino)ethyl)-3-methyl-4-oxo-1,4,5,6-tetrahydropyrrolo[3,4-b]pyrrol-2-yl)methylene)-2-oxoindoline-5-sulfonamide] | > 10 µM | – | did not differ from that of the 1% DMSO (control) | – | –
10 | 7.86 ± 0.3 µM | 6.37 ± 1.09 µM | 214 to 216 °C | 3.06 ± 0.67 µM | 41% | CCN(CC)CCN1Cc2[nH]c(/C=C3\C(=O)Nc4ccc(OC)cc43)c(C)c2C1=O [Compound 13, (Z)-3-((5-(2-(diethylamino)ethyl)-3-methyl-4-oxo-1,4,5,6-tetrahydropyrrolo[3,4-b]pyrrol-2-yl)methylene)-5-methoxyindolin-2-one] | > 10 µM | >3.27 | – | >1.57 | selective index (SI) 786-O [1]: >1.27; cell cycle profile effect ([6]; 3.0 μM): increase in polyploid cells; IC50 [7]: 0.74 ± 0.16 µM; potency in inhibiting in vitro tube formation relative to sunitinib in terms of IC50 [7]: twofold higher; % inhibition of Aurora A at 1.0 μM [8]: 92.9%; inhibition at 1 µM [8]: 94.4%; IC50 [11]: 0.0762 µM; IC50 [5]: 0.0478 µM

Row | Structure (SMILES) | IC50 [1] | IC50 [3] | melting point | IC50 [4] | inhibition at 0.08 µM [5] | IC50 [2] | selective index (SI) HCT116 [4] | % inhibition of VEGFR-2 at 80 nM [5] | selective index (SI) NCI-H460 [3] | further results
11 | CCN(CC)CCN1Cc2[nH]c(/C=C3\C(=O)Nc4ccc(S(=O)(=O)N(CCCl)CCCl)cc43)c(C)c2C1=O [Compound 7, (Z)-N,N-Bis(2-chloroethyl)-3-((5-(2-(diethylamino)ethyl)-3-methyl-4-oxo-1,4,5,6-tetrahydropyrrolo[3,4-b]pyrrol-2-yl)methylene)-2-oxoindoline-5-sulfonamide] | > 10 µM | > 10 µM | – | 3.65 ± 0.19 µM | 46% | 6.06 ± 0.4 µM | 1.66 | – | <0.61 | selective index (SI) 786-O [1]: <0.61; cell cycle profile effect ([6]; 5.0 μM): increase in polyploid cells; IC50 [7]: 0.76 ± 0.11 µM; potency in inhibiting in vitro tube formation relative to sunitinib in terms of IC50 [7]: twofold higher; % inhibition of Aurora A at 1.0 μM [8]: 94.4%; inhibition at 1 µM [8]: 92.9%; acute cytotoxicity, Detroit 551 ([9]; 10 μM, 6 h, WST-8): neither our compounds nor sunitinib had acute cytotoxicity; acute cytotoxicity, HCT116 ([10]; 10 μM, 6 h, WST-8): neither our compounds nor sunitinib had acute cytotoxicity; IC50 [11]: 0.0632 µM; IC50 [5]: 0.0237 µM
